Converted amounts (≈) assume the structure as drawn.

The nature of data set [1]: Inhibition of human cytomegalovirus protease. More on the design: species or system Human betaherpesvirus 5.
Data set [2] relates to Rhesus monkey. Nature of the data set: Antidyslipidemic activity in cholesterol-fed rhesus monkey assessed as reduction in plasma cholesterol. The class given is functional. Conditions: Macaca mulatta.
For data set [3], the species on record is Canis familiaris. The data set is described as follows: Antidyslipidemic activity in cholesterol-fed Dog assessed as reduction in plasma cholesterol level. The class given is functional. To be noted: Canis lupus familiaris.
The test system of data set [4] is Hamster. The data set is described as follows: Antidyslipidemic activity in cholesterol-fed hamster model assessed as reduction in liver cholesteryl esters. Conditions: Cricetinae. The class given is functional.
Data set [5] relates to Pseudomonas aeruginosa. The data set is described as follows: Antimicrobial activity against Pseudomonas aeruginosa ATCC 10145. Type of data set: functional.
For data set [6], the target named is T1, Neutrophil elastase (Homo sapiens, UniProt P08246).
T1 sequence (P08246 whole entry): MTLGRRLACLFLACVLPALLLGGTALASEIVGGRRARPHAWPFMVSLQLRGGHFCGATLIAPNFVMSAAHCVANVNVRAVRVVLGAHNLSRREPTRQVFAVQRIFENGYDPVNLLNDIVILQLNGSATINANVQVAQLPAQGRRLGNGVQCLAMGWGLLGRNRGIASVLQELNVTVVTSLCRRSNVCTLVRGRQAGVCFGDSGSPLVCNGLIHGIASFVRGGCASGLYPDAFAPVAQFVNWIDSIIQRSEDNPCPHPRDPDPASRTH
The data set is described as follows: Inhibition of human leukocyte elastase.

Data set [7] in a line: Inhibition of human Tryptase.
Data set [8] has as its target T2, Chymase (Homo sapiens, UniProt P23946).
T2 sequence (P23946 whole entry): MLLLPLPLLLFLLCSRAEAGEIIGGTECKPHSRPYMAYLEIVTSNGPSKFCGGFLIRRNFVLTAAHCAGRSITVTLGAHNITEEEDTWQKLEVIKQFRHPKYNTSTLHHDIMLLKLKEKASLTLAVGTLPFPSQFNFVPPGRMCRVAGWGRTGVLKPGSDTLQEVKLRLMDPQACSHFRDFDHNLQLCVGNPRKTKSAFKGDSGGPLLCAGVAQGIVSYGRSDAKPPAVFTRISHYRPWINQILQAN
The data set is described as follows: Inhibition of human Chymase.

Data set [9] deals with 72 kDa type IV collagenase (Homo sapiens, UniProt P08253). Nature of the data set: Inhibition of MMP2.
Data set [10] concerns HepG2. The data set is described as follows: Antidyslipidemic activity in human HepG2 cells assessed as inhibition of cholesterol esterification. Type of data set: functional, cell-based.
For data set [11], the system named is Hamster. Nature of the data set: Antidyslipidemic activity in cholesterol-fed hamster assessed as reduction in plasma cholesterol. The class given is functional. To be noted: Cricetinae.
Data set [12] is described as follows: Antidyslipidemic activity in rat hepatic microsomes assessed as inhibition of […]. Type of data set: functional, Liver.
Data set [13] relates to Caco-2. Nature of the data set: Antidyslipidemic activity in human Caco2 cells assessed as inhibition of cholesterol esterification. Type of data set: functional, cell-based.
Data set [14] concerns Hamster. Nature of the data set: Antidyslipidemic activity in hamster assessed as reduction in hepatic cholesteryl esters. The class given is functional. Conditions: Cricetinae.
For data set [15], the species on record is Rattus norvegicus. The data set is described as follows: Antidyslipidemic activity in cholesterol-fed rat assessed as reduction in plasma cholesterol. Type of data set: functional.
Data set [16] can be described thus: Inhibition of bovine brain tubulin polymerization. More on the design: species or system Bos taurus.
Data set [17] is described as follows: Chemical stability of the compound in human plasma assessed as half life. Type of data set: ADME, cell-free.

Chain of 72 kDa type IV collagenase (P08253 whole entry): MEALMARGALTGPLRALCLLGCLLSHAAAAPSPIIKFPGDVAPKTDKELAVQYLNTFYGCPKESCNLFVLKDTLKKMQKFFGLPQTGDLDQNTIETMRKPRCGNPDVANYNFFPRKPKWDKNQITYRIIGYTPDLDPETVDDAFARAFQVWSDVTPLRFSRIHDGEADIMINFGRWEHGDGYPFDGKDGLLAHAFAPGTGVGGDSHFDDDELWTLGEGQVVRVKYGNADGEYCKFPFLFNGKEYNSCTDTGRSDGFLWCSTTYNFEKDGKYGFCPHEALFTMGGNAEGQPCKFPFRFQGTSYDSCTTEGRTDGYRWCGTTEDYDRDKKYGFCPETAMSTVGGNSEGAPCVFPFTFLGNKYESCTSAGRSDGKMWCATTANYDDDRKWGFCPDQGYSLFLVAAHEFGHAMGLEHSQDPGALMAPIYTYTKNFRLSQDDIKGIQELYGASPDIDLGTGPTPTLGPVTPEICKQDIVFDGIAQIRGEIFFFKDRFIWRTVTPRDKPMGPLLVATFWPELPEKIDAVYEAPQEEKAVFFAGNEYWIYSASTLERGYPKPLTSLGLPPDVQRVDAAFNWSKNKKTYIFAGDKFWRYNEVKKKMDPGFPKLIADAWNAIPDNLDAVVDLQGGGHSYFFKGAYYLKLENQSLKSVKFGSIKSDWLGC

As for `CC[C@@H](NC(=O)N1C(=O)CC1SC[C@H](CC(C)C)NC(=O)[C@@H](NC(=O)CC(C)(C)C)C(C)(C)C)c1ccccc1` (stereo partly specified), the IC50 (usually the concentration needed to halve the response being measured) in data set [1] was 70 nM.

On to `O=C1[C@H](CC[C@H](O)c2ccc(F)cc2)[C@@H](c2ccc(O)cc2)N1c1ccc(F)cc1` [EZETIMIBE], for which the ED50 (as a rule, the dose that gives a 50% effect, or the effect in half of the subjects) in data set [2] was 0.5 µg/kg; in [3], 0.007 mg/kg/day; in data set [4], 0.04 mg/kg/day.

For `Cc1ccc(C2N(c3ccc(C)cc3)C(=O)C2(Cl)Cl)cc1` (stereo unspecified), in data set [5], the MIC (as a rule, the smallest concentration in the dilution series that meets the test's criterion for growth inhibition) was found to be 125 µg/mL (≈ 390 µM).

In data set [5], `O=C1N(c2ccccc2)C(c2ccc([N+](=O)[O-])cc2)C1(Cl)Cl` (stereo unspecified) showed an MIC of 125 µg/mL (≈ 371 µM).

`CCOC(=O)/C=C1\[C@@H](C(C)O[Si](C)(C)C(C)(C)C)C(=O)N1C(=O)c1cc(OCc2ccccc2)c(OCc2ccccc2)c(OCc2ccccc2)c1` (stereo partly specified) returned an IC50 in data set [6] of 500 nM.

`O=C1N(c2ccc(Cl)cc2)C(c2ccc(Cl)cc2)C1(Cl)Cl` (stereo unspecified): the MIC in data set [5] worked out at 125 µg/mL (≈ 346 µM).

Regarding `CC(C)(C)NC(=O)N1CCN(C(=O)N2C(=O)[C@H](CCCN=C(N)N)[C@H]2C(=O)O)CC1`, the IC50 in data set [7] was 4 nM.

`N=C(N)N1CCC[C@H](C[C@H]2C(=O)N(C(=O)N3CCN(C(=O)CCCCCc4ccccc4)CC3)[C@@H]2C(=O)O)C1`: the IC50 in [7] is < 1.7 nM.

In data set [5], `O=C1N(c2ccccc2)C(c2ccccc2)C1(Cl)Cl` (stereo unspecified) returned an MIC of 125 µg/mL (≈ 428 µM).

In turn, `O=C(O)[C@@H]1[C@@H](CCC2CCCNC2)C(=O)N1C(=O)N1CCN(C(=O)CCCCCc2ccccc2)CC1` (stereo partly specified) gave an IC50 in data set [7] of 1.8 nM.

Regarding `N=C(N)N1CCC[C@@H](C[C@H]2C(=O)N(C(=O)N3CCN(C(=O)CCCCCc4ccccc4)CC3)[C@@H]2C(=O)O)C1`, the IC50 in [7] was < 1.7 nM.

In data set [8], `C[C@@H](NC(=O)N1C(=O)[C@@H](Cc2ccccc2)[C@H]1Oc1ccc(N2CCN(C)CC2)cc1)c1ccccc1` yielded an IC50 of 0.46 nM.

Compound `CCOC(=O)/C=C1\NC(=O)[C@@H]1[C@@H](C)OC(=O)c1cc(OCc2ccccc2)c(O)c(OCc2ccccc2)c1` yielded a concentration for half-maximal inhibition (IC50) in data set [9] of 4000 nM.

On to `COc1ccc([C@@H]2[C@@H](CCCc3ccccc3)C(=O)N2c2ccc(OC)cc2)cc1` [SCH-48461], for which the ED50 in [2] came out at 0.2 mg/kg/day; in data set [11], 1 mg/kg/day; in data set [14] it was 2 mg/kg/day; in [15] it was 2 mg/kg/day. The half-inhibitory concentration (IC50) in data set [10] stood at 22000 nM; in [12] it was 26000 nM; in data set [13], 32000 nM.

In the case of `COc1ccc(C2C(O)C(=O)N2c2ccccc2)cc1N` (stereo unspecified), in data set [16], inhibition was half-maximal at 5000 nM (IC50).

In turn, `COc1ccc(C2N(c3ccc(OC)cc3)C(=O)C2(Cl)Cl)cc1` (stereo unspecified) returned a minimum inhibitory concentration (MIC) in data set [5] of 125 µg/mL (≈ 355 µM).

Regarding `CCOc1ccccc1C[C@@H]1C(=O)N(C(=O)NC(c2ccccc2)c2ccccc2)[C@@H]1Oc1ccc(C(=O)O)cc1`, in data set [8], the half-maximal inhibitory concentration (IC50) was 3.1 nM. Also, the half-life (commonly the time in which the quantity being followed falls by half) in data set [17] was 6 h.
